{"source": "patent US20170065526A1", "about": "“SOLID DOSAGE FORM OF RIVAROXABAN AND METHODS FOR MAKING THE SAME” (priority 2015, published 2017)", "origin": "cited, not measured here", "conditions": "relatively poor solubility, background statement"}
{"smiles": "O=C(NC[C@H]1CN(c2ccc(N3CCOCC3=O)cc2)C(=O)O1)c1ccc(Cl)s1", "note": "[rivaroxaban, (S)-5-chloro-N-{[2-oxo-3-[4-(3-oxomorpholin-4-yl)phenyl]oxazolidin-5-yl]methyl}thiophene-2-carboxamide]", "values": [{"measurement": "solubility", "result": "~7", "unit": "µg/mL"}]}
